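These data come from cells grown in 96-well plates and exposed to compound for 48 hours at five concentrations. GI50 is the concentration that inhibits growth by half. TGI marks complete inhibition of growth.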
Experiments:
Test in all cases: DTP human tumour cell line panel, 48 h
BT-549 breast = test system: BT-549 breast
HL-60(TB) leukemia = test system: HL-60(TB) leukemia
K-562 leukemia = test system: K-562 leukemia
LOX IMVI melanoma = test system: LOX IMVI melanoma
NCI-H460 lung = test system: NCI-H460 lung
OVCAR-8 ovarian = test system: OVCAR-8 ovarian
SF-295 CNS = test system: SF-295 CNS
TK-10 renal = test system: TK-10 renal
UACC-257 melanoma = test system: UACC-257 melanoma
UO-31 renal = test system: UO-31 renal

Compound | GI50 (BT-549 breast) [µM] | TGI (BT-549 breast) [µM] | GI50 (HL-60(TB) leukemia) [µM] | TGI (HL-60(TB) leukemia) [µM] | GI50 (K-562 leukemia) [µM] | TGI (K-562 leukemia) [µM] | GI50 (LOX IMVI melanoma) [µM] | TGI (LOX IMVI melanoma) [µM] | GI50 (NCI-H460 lung) [µM] | TGI (NCI-H460 lung) [µM] | GI50 (OVCAR-8 ovarian) [µM] | TGI (OVCAR-8 ovarian) [µM] | GI50 (SF-295 CNS) [µM] | TGI (SF-295 CNS) [µM] | GI50 (TK-10 renal) [µM] | TGI (TK-10 renal) [µM] | GI50 (UACC-257 melanoma) [µM] | TGI (UACC-257 melanoma) [µM] | GI50 (UO-31 renal) [µM] | TGI (UO-31 renal) [µM]
Nc1[nH]nc2nc(-c3cccs3)cc(C(F)(F)F)c12 | > 24.1 | > 25 | > 25 | > 25 | > 25 | > 25 | > 25 | > 25 | > 25 | > 25 | > 25 | > 25 | > 25 | > 25 | > 19.2 | > 25 | > 25 | > 25 | > 25 | > 25
O=C(Nc1ccc(Cl)cc1)Nc1ccc(Nc2nncc3ccccc23)cc1 | 2.15 | 9.28 | 2.42 | 7 | 1.68 | 26.4 | 0.825 | 14.6 | 2.91 | 11.9 | 3.12 | 12.4 | 2.84 | 11 | 5.03 | 24.4 | 3.41 | 10.8 | 1.9 | 15.8
COc1cc(C(=O)NC2CCN(C)CC2)c(F)cc1Nc1ncc2c(n1)N(C1CCCC1)CC(F)(F)C(=O)N2C | 1.87 | 20 | < 0.01 | < 0.0197 | < 0.01 | 4 | < 0.0186 | 4.96 | < 0.0168 | 12.4 | 0.0338 | 18.7 | < 0.0176 | – | – | 12.6 | 1.25 | 10.9 | – | 10.5
O=C1c2c(O)cccc2C(C2OC(CO)C(O)C(O)C2O)c2cc(CO)cc(O)c21 (stereo not given) | – | > 100 | – | > 100 | – | > 100 | – | > 100 | – | > 100 | – | > 100 | – | > 100 | – | > 100 | – | > 100 | – | > 100
CCSCCCN(CCCSCC)CCCSCC | – | > 100 | – | > 100 | – | > 100 | – | > 100 | – | > 100 | – | > 100 | – | > 100 | – | – | – | > 100 | – | > 100
COc1ccc2c(c1)C(=O)c1c-2c(N(C)C)nc2ccccc12 | > 100 | > 100 | > 100 | > 100 | > 100 | > 100 | > 100 | > 100 | > 100 | > 100 | > 100 | > 100 | – | – | 88.9 | > 100 | > 100 | > 100 | > 100 | > 100
O=[N+]([O-])c1cccc([As]=[As]c2cccc([N+](=O)[O-])c2)c1 (stereo not given) | 0.0765 | 0.204 | – | – | 0.0327 | 0.106 | 0.0452 | 0.146 | 0.225 | 0.5 | 0.141 | 0.284 | 0.178 | 0.34 | 0.132 | 0.266 | 0.122 | 0.252 | 0.119 | 0.255
COc1ccc(OC)c2c1C(=O)C1CC1(Br)C2=O (stereo not given) | – | – | – | > 100 | – | > 100 | – | > 100 | – | > 100 | – | > 100 | – | > 100 | – | > 100 | – | > 100 | – | > 100
CC(=O)C1C(=O)C(=O)N(c2ccccc2C(C)C)C1=O (stereo not given) | – | – | – | > 100 | – | > 100 | – | > 100 | – | > 100 | – | > 100 | – | > 100 | – | > 100 | – | > 100 | – | > 100
COC(=O)C1=CC2C(=O)OC1CC2C#N (stereo not given) | – | – | – | > 100 | – | > 100 | – | > 100 | – | > 100 | – | > 100 | – | > 100 | – | > 100 | – | > 100 | – | > 100
CCc1ccc(NC(=O)COC(=O)c2cc([N+](=O)[O-])ccc2Sc2nnnn2C)cc1 | 4.42 | 26.6 | 18.8 | 49.7 | 9.4 | 50.6 | 6.75 | 22 | 13 | 33.3 | – | – | 17.5 | 49.4 | 46.4 | > 100 | 19.3 | 61.2 | 24.9 | > 100
COc1cc(C2C(Cl)C(=O)N2NC(=O)c2ccc(N)cc2)ccc1O (stereo not given) | – | – | – | > 100 | – | 76.2 | – | 32.1 | – | > 100 | – | 47.4 | – | > 100 | – | > 100 | – | > 100 | – | > 100
CC1=C(CO)C(=O)O[C@@H]([C@@H](C)[C@H]2CC[C@H]3[C@@H]4C[C@@H](O)[C@@]5(O)CC=CC(=O)[C@]5(C)[C@H]4CC[C@]23C)C1 | – | 93.8 | – | > 100 | – | > 100 | – | > 100 | – | 38.3 | – | > 100 | – | > 100 | – | > 100 | – | > 100 | – | –
O=C(Nc1cccc(NC(=O)Nc2cc(C(F)(F)F)ccc2Cl)c1)Nc1cc(C(F)(F)F)ccc1Cl | 5.55 | 38.4 | – | – | 2.17 | 44.7 | 3.47 | 15.4 | 2.22 | 10.5 | 2.05 | 15.7 | 1.59 | 12.2 | 2.57 | 11.5 | 4.29 | 41.4 | 2.49 | 14.7
C[C@]12CC[C@H]3[C@@H](CC[C@]4(O)C[C@@H](O)CC[C@]34/C=N/O)[C@@]1(O)CC[C@@H]2C1=COC(=O)C1 | – | 0.245 | – | – | – | 0.93 | – | 0.489 | – | 0.166 | – | 0.458 | – | 0.386 | – | 0.454 | – | 1.62 | – | –
Cc1ccc(CNc2c3ccccc3nc3cc(NC(=O)CCN4CCCC4)ccc23)cc1 | 1.47 | 2.88 | – | – | – | – | 0.515 | 1.76 | 0.365 | 1.25 | – | – | 1.04 | 2.35 | 1.23 | 2.85 | 1.69 | 3.27 | 1.25 | 2.54

Source: PubChem BioAssay (NCI)
